Experimental data from patent US6423737B1, “Benzamidoxime prodrugs as antipneumocystic agents” (The University of North Carolina at Chapel Hill, priority 1995, dated 2002).

Legend:
BRL 3A hepatocytes = assay: Metabolism in intact cultured cells (HPLC of culture supernatants); assay type: in vitro ADME; conditions: 10 μM substrate, 24 hours, 37EC; extracellular medium assayed; FIG. 4
Description: Metabolic experiments with intact cultured cells were performed using the BRL 3A hepatocyte line, obtained from the UNC-Chapel Hill Lineberger Tissue Culture Facility. Cells were routinely cultured in Costar (Cambridge, Mass.) 25 cm^2 of tissue culture flasks at 37EC under moist 5% CO2 and 95% air in Ham's F-12 medium (Gibco, Gaithersburg, Md.) containing 5% fetal bovine serum (HyClone Laboratories Inc., Logan, Utah). Confluent cultures were treated with 0.25% trypsin solution (Sigma Chemical Co., ST. Louis Mo.), then approximately 2×10^5 cells/well subcultured into Costar 6-well tissue culture chambers and the cells allowed to grow to confluency. Ten mL fresh medium was added to each culture well and incubations were started by adding 100 μL amidoxime solution (prepared in sterile water) to a final concentration of 10 μM. Cell cultures were incubated at 37EC under moist 5% CO2 and 95% air for 24 hours, then aliquots of culture supernatants extracted and assayed for metabolites as described below. Similar metabolic experiments were performed with cultured J774 A.1 mouse monocyte-macrophage cells cultured in DMEM F-12 medium containing 10% fetal bovine serum and H9c2 rat heart myoblast cells cultured in DMEM H medium containing 10% fetal bovine serum.
(§1) Samples were extracted using solid phase extraction and assayed using high performance liquid chromatography (HPLC) by methods similar to those previously described in Berger et al. (1992) and Berger et al., (1991), supra. Briefly, samples spiked with 2,5-bis[4-(N-isopropylamidino)phenyl]furan dihydrochloride as the internal standard (IS) were extracted over activated C18 Bond Elut cartridges (Varian Associates, Sunnydale, Calif.), washed with water, 100% acetonitrile, then eluted with 75% acetonitrile/25% water containing 15 mm triethylamine and 35 mM acetic acid. The diamidoxime substrates elute in the 100% acetonitrile phase, while mono-amidine and diamidine products elute in the acetonitrile/water mixture containing triethylamine and acetic acid. Elutes were evaporated to dryness at 40EC under a gentle stream of nitrogen and resuspended in HPLC grade water.
Compounds were resolved using a Hewlett-Packard (Avondale, Pa.) model 1090 HPLC equipped with a HP 1050 variable wavelength detector set at 265 nm, a 4.6×250 mm Zorbax RX diisopropyl C8 column (Mac-Mod, Chadd's Ford, PA) maintained at 40EC and a Vectra 486/66U computer with HP Chemstations software. […] Quantities of metabolites formed were calculated, using peak area rations of authentic standard, from standard addition curves generated by spiking standards into tissue homogenates or tissue culture medium.

Pneumocystis carinii [1] = assay: Anti-P. carinii activity in immunosuppressed rat model (lung cyst counts); assay type: in vivo, Sprague-Dawley rats; conditions: for anti-P. carinii activity / mean cyst counts when given intravenously (in words): Formula I amidoximes, intravenous; for anti-P. carinii activity when given orally (in words): Formula I series, orally by gavage once daily for 14 days; for % saline, ORAL DOSING / % saline, IV DOSING: Table 2; for % saline, ORAL DOSING: oral by gavage daily for 14 days @33 μmol/kg body weight; for % saline, IV DOSING: tail vein injection daily for 14 days at 22 mg/kg body weight
Description: The activity of the compounds of Formula I against P. carinii was carried out according to an established method. See Tidwell, R. R., et al., J. Protozool. […] Agents Chemother. […] Agents Chemother. […] Briefly, male Sprague-Dawley rats (barrier raised, not certified virus-free) weighing 150-200 g each, were obtained (Hilltop Laboratories, Scottsdale, Pa.). Immediately upon arrival, the animals were caged individually and begun on a low protein (8%) diet and on drinking water containing tetracycline (0.5 mg/mL) and dexamethasone (1.0 μ/mL). This regimen was continued for eight weeks. At the beginning of the seventh week, animals were divided into groups of 8 or more, and the test compounds were administered for 14 days. Saline and pentamidine-treated groups were included as controls.
Animals were sacrificed at the end of the eighth week by chloroform inhalation. The left lung was weighed, ground through a No. 60 wire mesh screen, and suspended 1:10 (wt/vol) in 10 mM β-mercaptoethanol-Hanks' balanced salts solution (HBSS) without cations. Slides were prepared by spotting 5 μL of lung homogenate diluted 1:10 in HBSS with β-mercaptoethanol and allowed to air dry. The slides were stained with cresyl violet, and the cysts were counted by a blinded protocol. The number of cysts per gram of original lung tissue was calculated, and the groups were reported as the percentages of saline-treated controls.
The anti-P. carinii value for each compound is expressed as the percent of cysts in the treatment group as compared to the saline control group. Values are also compared to a positive control group consisting of animals treated intravenously with pentamidine.

[2] = In vitro metabolism by rat tissue homogenate 9000×g supernatants (HPLC); assay type: in vitro ADME; conditions: for metabolism by rat liver homogenate 9000×g supernatants: 167 μM substrate plus cofactor solution, 37EC, 10 minutes, FIG. 1
Description: In vitro metabolism of diamidoximes 1, 3, 5, and 7 by rat liver homogenate 9000×g supernatants, post-mitochondrial 105,000×g supernatants or microsomal fractions were performed as previously described in B. J. Berger et al., Antimicrob. Agents and Chemotherapy 36, 1825-1831 (1992); B. J. Berger et al., J. Pharmacol. Experimental Therapeutics 256, 883-89 (1991). Briefly, adult male Sprague-Dawley rats, barrier raised, (Hilltop Laboratories, Scottsdale, Pa.) animals were given water and rat chow (Agway, Syracuse, N.Y.) ad libitum. The rats were euthanized by decapitation, the livers removed immediately, rinsed with 50 mM potassium phosphate buffer, pH 7.4, and placed on ice. All subsequent steps were performed at 4EC. The livers were minced, homogenized, and 9000×g supernatants, 105,000×g or 105,000×g microsomal pellets prepared. Each fraction was assayed for protein content as described in M. M. Bradford, Anal. Biochem. 72, 248-254 (1976) and stored at −80EC. Fractions from the rat kidneys, lungs, hearts and brains were prepared similarly.
Reaction mixtures consisted of 1.5 mL 50 mM potassium phosphate buffer, pH 7.4, 0.5 mL cofactor solution (2 mg/mL NADPH, 1.6 mg/mL MgCl2, 1.04 mg/mL glucose-6-phosphate and 2 units/mL glucose-6-phosphate dehydrogenase in 50 mM potassium phosphate buffer pH 7.4), 0.5 mL tissue homogenate and 0.5 mL of the appropriate diamidoxime substrate at a concentration of 167 μM. Reactions were started by adding substrate, then mixtures were incubated at 37EC in a shaking water bath for times shown in the figures. Reactions were terminated by extracting over C18 cartridges and assaying as described below.
as §1
Compounds were resolved using a Hewlett-Packard (Avondale, Pa.) model 1090 HPLC equipped with a HP 1050 variable wavelength detector set at 265 nm, a 4.6×250 mm Zorbax RX diisopropyl C8 column (Mac-Mod, Chadd's Ford, PA) maintained at 40EC and a Vectra 486/66U computer with HP Chemstations software. The mobile phase consisted of 15 mM triethylamine and 35 mM acetic acid in HPLC grade water for pump A, and 15 mM triethylamine and 35 mM acetic acid in 75% acetonitrile in water for pump B. The solvent flow rate was 1.5 mL/min, and the solvent gradient ran from 0% B to 25% B at 22 min, to 40% B at 25 min, then 90% B at 35 min. All solvents and reagents used for the assays were HPLC grade. Quantities of metabolites formed were calculated, using peak area rations of authentic standard, from standard addition curves generated by spiking standards into tissue homogenates or tissue culture medium.

[3] = Acute toxicity of single doses in normal rats; assay type: in vivo; conditions: for time after injection to recovery: single IV 80 μmol/kg; for time after injection to recovery / persistence of symptoms: single IV 160 μmol/kg; for overt toxic responses after single oral doses: single oral doses as high as 160 μmol/kg; for overt acute adverse reactions following single intravenous injections, compared to the bis-benzamidines: single tail vein injection
[4] = Subjective scale of toxicity and tolerance during treatment in the immunosuppressed rat model; conditions: subjective scale
Description: ^b subjective scale of toxicity. […] In general, the larger the value the more severe the toxicity, with values greater than 2 indicating the death of some animals

Pneumocystis carinii [5] = conditions: immunosuppressed rat model, D. W. Boykin et al., J. Med. Chem. 38, 912 (1995); cited from earlier work

SMILES	metabolism in intact BRL 3A hepatocytes (BRL 3A hepatocytes)	anti-P. carinii activity / mean cyst counts when given intravenously (in words) (Pneumocystis carinii [1])	anti-P. carinii activity when given orally (in words) (Pneumocystis carinii [1])	% saline, ORAL DOSING (Pneumocystis carinii [1]) [% saline]	% saline, IV DOSING (Pneumocystis carinii [1]) [% saline]	metabolism by rat liver homogenate 9000×g supernatants [2]	observed acute toxicity after single intravenous injection ([3]; normal rats, 80 μmol/kg)	observed acute toxicity after single intravenous injection ([3]; normal rats, 160 μmol/kg)	time after injection to recovery ([3]; normal rats) [min]	time after injection to recovery / persistence of symptoms ([3]; normal rats)	overt toxic responses after single oral doses ([3]; normal rats)	overt acute adverse reactions following single intravenous injections, compared to the bis-benzamidines ([3]; normal rats)	further results
COc1cc(C(N)=NO)ccc1OCCCOc1ccc(C(N)=NO)cc1OC.O=C(O)/C=C\C(=O)O.O=C(O)/C=C\C(=O)O [Compound 7, 1,3-bis(2′-methoxy-4′-(N-hydroxyamidino)phenoxy)propanedi-hemimaleinate]	metabolized predominantly to the corresponding diamidine	significantly reduced compared to saline controls	most active	3.71	0.03	metabolized similarly	only very minor hypoactivity and dyspnea	pronounced hypoactivity, dyspnea, cyanosis, and increased salivation and lacrimation	5	approximately 10 minutes	No overt toxic responses	greatly reduced	observed acute toxicity after single intravenous injection ([3]; normal rats, 20 or 40 μg/kg): no observable adverse effects
N=C(N)c1ccc(-c2ccc(-c3ccc(C(=N)N)cc3)o2)cc1 [Compound 9, 2,5-bis-[4-amidinophenyl]furan, reference compound]	–	–	–	–	–	–	–	–	–	–	–	–	Toxicity, IV DOSING ([4]; 0.03 μmol/kg/day): 0; Toxicity, IV DOSING ([4]; 0.3 μmol/kg/day): 0; Toxicity, IV DOSING ([4]; 2.7 μmol/kg/day): 0; Toxicity, IV DOSING ([4]; 13.3 μmol/kg/day): 0; Toxicity, IV DOSING ([4]; 26.6 μmol/kg/day): +1; Toxicity, ORAL DOSING ([4]; 39.8 μmol/kg/day): 0; Toxicity, ORAL DOSING ([4]; 66.3 μmol/kg/day, larger = more severe): 0; activity and toxicity compared with pentamidine on intravenous dosage (Pneumocystis carinii [5]): more active and less toxic than pentamidine; activity on oral administration, furan series (in words) (Pneumocystis carinii [1]; immunosuppressed rat model, orally by gavage): significantly less
NC(=NO)c1ccc(OCCCCOc2ccc(C(N)=NO)cc2)cc1.O=C(O)/C=C\C(=O)O.O=C(O)/C=C\C(=O)O [Compound 3, 1,4-bis(4′-(N-hydroxyamidino)phenoxy)butanedi-maleinate]	metabolized predominantly to the corresponding diamidine	significantly reduced compared to saline controls	most active	1.43	0.12	metabolized similarly	–	–	–	–	–	–	–
NC(=NO)c1ccc(OCCCCCOc2ccc(C(N)=NO)cc2)cc1.O=C(O)/C=C\C(=O)O.O=C(O)/C=C\C(=O)O [Compound 1, 1,5-bis(4′-(N-hydroxyamidino)phenoxy)pentanedi-hemimaleinate]	metabolized predominantly to the corresponding diamidine	significantly reduced compared to saline controls	–	19.27	0.15	forming large quantities of the monoamidine-monoamidoxime derivative, and smaller amounts of pentamidine	Minor toxic responses, including barely observable hindleg ataxia and slight hypoactivity	–	5	–	No overt toxic responses	greatly reduced	metabolism by 9000×g supernatants of homogenates of rat liver, kidney, lung and heart ([2]; FIG. 3A-3D): into its amidine analog pentamidine; observed acute toxicity after single intravenous injection ([3]; normal rats, bolus injections above 120 μmol/kg): severe dyspnea and profound hypoactivity; observed acute toxicity after single intravenous injection ([3]; normal rats, from 20 to 60 μmol/kg): no observable adverse reactions
NC(=NO)c1ccc(OCCCOc2ccc(C(N)=NO)cc2)cc1.O=C(O)/C=C\C(=O)O.O=C(O)/C=C\C(=O)O [Compound 5, 1,3-bis(4′-(4-hydroxyamidino)phenoxy)propanedi-hemimaleinate]	metabolized predominantly to the corresponding diamidine	significantly reduced compared to saline controls	most active	2.25	0.03	metabolized similarly	–	only minor ataxia and/or hypoactivity	–	5 min	No overt toxic responses	greatly reduced	observed acute toxicity after single intravenous injection ([3]; normal rats, 20, 40 or 80 μmol/kg): no overt toxicity
